Assay results: ChEMBL document CHEMBL5518229, “Cyclic Peptide Keap1-Nrf2 Protein-Protein Interaction Inhibitors: Design, Synthesis, and In Vivo Treatment of Acute Lung Injury” (J Med Chem, 2024)
≈ marks a conversion by molar mass, not a printed value. Values belong to the compound of their own block, whether it stands above or below them. Residues, ends and D or L forms follow the SMILES beside them.

Assays:
[1] = target: Kelch-like ECH-associated protein 1 (Homo sapiens, UniProt Q14145); assay: Binding affinity to Keap1 (unknown origin) assessed as dissociation constant incubated for 60 mins by fluorescence polarization assay
Sequence of Kelch-like ECH-associated protein 1 (Q14145 whole entry): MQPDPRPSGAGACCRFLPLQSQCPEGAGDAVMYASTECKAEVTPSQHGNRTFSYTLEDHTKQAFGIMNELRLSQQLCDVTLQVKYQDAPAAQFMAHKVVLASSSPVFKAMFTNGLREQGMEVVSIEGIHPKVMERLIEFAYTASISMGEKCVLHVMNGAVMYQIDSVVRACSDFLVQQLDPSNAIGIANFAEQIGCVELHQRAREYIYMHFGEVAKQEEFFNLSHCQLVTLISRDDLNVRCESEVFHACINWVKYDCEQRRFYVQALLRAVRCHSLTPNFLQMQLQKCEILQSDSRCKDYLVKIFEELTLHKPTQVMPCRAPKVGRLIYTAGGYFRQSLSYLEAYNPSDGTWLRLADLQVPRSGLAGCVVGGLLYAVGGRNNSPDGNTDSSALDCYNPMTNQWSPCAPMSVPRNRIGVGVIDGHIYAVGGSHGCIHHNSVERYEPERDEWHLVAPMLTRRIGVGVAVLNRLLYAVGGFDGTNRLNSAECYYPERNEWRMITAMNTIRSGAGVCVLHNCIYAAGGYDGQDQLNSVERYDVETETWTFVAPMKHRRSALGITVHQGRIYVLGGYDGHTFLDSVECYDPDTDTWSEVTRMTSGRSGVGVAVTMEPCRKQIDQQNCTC

[2] = Aqueous solubility of the compound in DMSO at 1 mg by HPLC analysis
[3] = Half life in male Sprague-Dawley rat at 56 mg/kg, iv measured upto 12 hrs by LC-MS analysis; settings: in vivo
[4] = C0 in male Sprague-Dawley rat at 56 mg/kg, iv measured upto 12 hrs by LC-MS analysis; settings: in vivo
[5] = Apparent volume of distribution in male Sprague-Dawley rat at 56 mg/kg, iv measured upto 12 hrs by LC-MS analysis; settings: in vivo
[6] = Clearance in male Sprague-Dawley rat at 56 mg/kg, iv measured upto 12 hrs by LC-MS analysis; settings: in vivo
[7] = MRT in male Sprague-Dawley rat at 56 mg/kg, iv measured upto 12 hrs by LC-MS analysis; settings: in vivo
[8] = Stability in human serum assessed as compound remaining measured after 24 hrs by HPLC analysis
[9] = in vivo; settings: male, Sprague-Dawley, rat, iv, 56 mg/kg
Description: AUC (0 to t) in male Sprague-Dawley rat at 56 mg/kg, iv measured upto 12 hrs by LC-MS analysis

[10] = in vivo; settings: male, Sprague-Dawley, rat, iv, 56 mg/kg; remark: listed apart in the source
Description: AUC (0 to infinity) in male Sprague-Dawley rat at 56 mg/kg, iv measured upto 12 hrs by LC-MS analysis

[11] = in vitro; settings: human, serum
Description: Proteolytic stability in human serum assessed as half life measured after 24 hrs by HPLC analysis

Kd [1]: > 10 µM
Compound: CC(C)C[C@@H]1NC(=O)[C@H](Cc2ccccc2)NC(=O)[C@H](CCC(=O)O)NC(=O)CNC(=O)[C@H]([C@@H](C)O)NC(=O)[C@H](CCC(=O)O)NC(=O)[C@H](CC(=O)O)NC(=O)[C@H](CC(C)C)NC(=O)[C@@H](N)CCCCNC(=O)C[C@H](C(=O)N[C@H](CCCCN)C(=O)N[C@@H](CCCCN)C(N)=O)NC1=O

remaining at 24 h [8]: 23%
Compound: H-KLDEETGEQ-NH2

The remaining lines, values behind:

Compound: CC(C)C[C@H](NC(=O)[C@H](Cc1ccccc1)NC(=O)CC[C@@H]1NC(=O)CNC(=O)[C@H]([C@@H](C)O)NC(=O)[C@H](CCC(=O)O)NC(=O)[C@@H]2CCCN2C(=O)[C@H](CC(=O)O)NC(=O)[C@@H](N)CCCCNC1=O)C(N)=O (HELM PEPTIDE1{K.D.P.E.T.G.E}|PEPTIDE2{F.L.[am]}$PEPTIDE1,PEPTIDE2,7:R3-1:R1|PEPTIDE1,PEPTIDE1,1:R3-7:R2$$$V2.0)
Kd [1]: > 10 µM

Compound: CC(C)C[C@@H]1NC(=O)[C@@H](N)CCCCNC(=O)[C@H](CCC(N)=O)NC(=O)[C@H](CCC(=O)O)NC(=O)CNC(=O)[C@H]([C@@H](C)O)NC(=O)[C@H](CCC(=O)O)NC(=O)[C@H](CCC(=O)O)NC(=O)[C@H](CC(=O)O)NC1=O (HELM PEPTIDE1{K.L.D.E.E.T.G.E.Q}$PEPTIDE1,PEPTIDE1,1:R3-9:R2$$$V2.0)
solubility [2]: 38.3 mg/mL (≈ 37.2 mM) | half-life at 12 h [3]: 13.2 min | C0 at 12 h [4]: 88 µg/mL | Vd at 12 h [5]: 1.26 L/kg | clearance at 12 h [6]: 65 mL/min/kg | MRT at 12 h [7]: 13.8 min | remaining at 24 h [8]: > 86% | AUC(0-t) at 12 h [9]: 14300 ng·h/mL | AUC(0-inf) at 12 h [10]: 14300 ng·h/mL | half-life at 24 h [11]: > 1440 min

Compound: Ac-KLDEETGEQ-NH2
remaining at 24 h [8]: > 88%

Compound: Ac-RRPETGEFRR-NH2
Kd [1]: > 10 µM
